Assay results reported in ChEMBL document CHEMBL1201862, “PubChem BioAssay data set” (2004).
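Briefly, cells in 96-well plates were exposed to five compound concentrations for 48 h, and endpoints were estimated by linear interpolation. GI50 marks 50% less growth.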 Calls of active or inactive are those of the source. Rule as the data show it: active = GI50 up to about 1.1 µM and inactive = higher.

Experiments:
Test in all cases: NCI anticancer screen, dose series, 48 h
SF-539 = tested on: SF-539
MOLT-4 = tested on: MOLT-4
ACHN = tested on: ACHN
DU-145 = tested on: DU-145
SF-295 = tested on: SF-295
OVCAR-8 = tested on: OVCAR-8
T47D = tested on: T47D
HCT-116 = tested on: HCT-116
SNB-19 = tested on: SNB-19
NCI-H23 = tested on: NCI-H23
KM12 = tested on: KM12
K562 = tested on: K562
SK-OV-3 = tested on: SK-OV-3
IGROV-1 = tested on: IGROV-1
HCT-15 = tested on: HCT-15
PC-3 = tested on: PC-3
RPMI-8226 = tested on: RPMI-8226
SF-268 = tested on: SF-268
HOP-92 = tested on: HOP-92
MDA-N = tested on: MDA-N

With `CCSc1nc(N2CCOCC2)c2cn[nH]c2n1` the GI50 (SF-539) was > 100 µM (inactive), the GI50 (MOLT-4) was > 100 µM (inactive) and the GI50 (ACHN) was 31.7 µM (inactive). For the same compound, the GI50 (DU-145) was > 100 µM (inactive), the GI50 (SF-295) was 54.8 µM (inactive) and the GI50 (OVCAR-8) was > 100 µM (inactive). For the same compound, the GI50 (T47D) was 9.73 µM (inactive), the GI50 (HCT-116) was > 100 µM (inactive) and the GI50 (SNB-19) was > 100 µM (inactive). The GI50 (NCI-H23) was 48.1 µM (inactive), the GI50 (KM12) was 58.9 µM (inactive) and the GI50 (K562) was > 100 µM (inactive). For the same compound, the GI50 (SK-OV-3) was 86.3 µM (inactive), the GI50 (IGROV-1) was 9.64 µM (inactive) and the GI50 (HCT-15) was 65.5 µM. The GI50 (PC-3) was 22.1 µM (inactive), the GI50 (RPMI-8226) was 37.5 µM (inactive) and the GI50 (SF-268) was > 100 µM (inactive). The GI50 (HOP-92) was 48 µM (inactive).

With `COc1ccc(N2CC(=O)N(C(=O)COc3ccc(OCC(=O)N4C(=O)CN(c5ccc(OC)cc5)C4=S)cc3)C2=S)cc1` the GI50 (MOLT-4) was 30 µM (inactive), the GI50 (MDA-N) was > 100 µM (inactive) and the GI50 (ACHN) was > 100 µM (inactive). The GI50 (DU-145) was > 100 µM (inactive), the GI50 (SF-295) was > 100 µM (inactive) and the GI50 (HCT-116) was 24 µM (inactive). The GI50 (SNB-19) was > 100 µM (inactive), the GI50 (NCI-H23) was 88.1 µM (inactive) and the GI50 (KM12) was 39.1 µM (inactive). The GI50 (K562) was 38.8 µM (inactive), the GI50 (SK-OV-3) was > 100 µM (inactive) and the GI50 (IGROV-1) was 15.4 µM (inactive). The GI50 (HCT-15) was > 100 µM, the GI50 (PC-3) was > 100 µM (inactive) and the GI50 (RPMI-8226) was 87.5 µM (inactive). The GI50 (SF-268) was > 100 µM (inactive) and the GI50 (HOP-92) was > 100 µM (inactive).

With `O=[N+]([O-])c1ccccc1S(=O)(=O)c1cc(Cl)cc2c1NCCC2` the GI50 (SF-539) was > 100 µM (inactive), the GI50 (MOLT-4) was 31.8 µM (inactive) and the GI50 (ACHN) was 56.6 µM (inactive). The GI50 (DU-145) was 94.6 µM (inactive), the GI50 (SF-295) was 52.2 µM (inactive) and the GI50 (OVCAR-8) was > 100 µM (inactive). For the same compound, the GI50 (HCT-116) was 41.7 µM (inactive), the GI50 (SNB-19) was 65 µM (inactive) and the GI50 (KM12) was 85.9 µM (inactive). The GI50 (K562) was 37.5 µM (inactive), the GI50 (SK-OV-3) was > 100 µM (inactive) and the GI50 (IGROV-1) was 48.3 µM (inactive). For the same compound, the GI50 (HCT-15) was 65.6 µM, the GI50 (PC-3) was 52.1 µM (inactive) and the GI50 (RPMI-8226) was 44.8 µM (inactive). For the same compound, the GI50 (SF-268) was > 100 µM (inactive) and the GI50 (HOP-92) was 91.2 µM (inactive).

`CC[C@H](CC[C@@H](C)[C@H]1CC[C@H]2[C@@H]3CC=C4C[C@@H](O)CC[C@]4(C)[C@H]3CC[C@]12C)C(C)C` [BETA-SITOSTEROL] was tested, and the GI50 (SF-539) was > 100 µM (inactive), the GI50 (MOLT-4) was > 100 µM (inactive) and the GI50 (MDA-N) was > 100 µM (inactive). The GI50 (ACHN) was > 100 µM (inactive), the GI50 (DU-145) was > 100 µM (inactive) and the GI50 (SF-295) was > 100 µM (inactive). For the same compound, the GI50 (OVCAR-8) was > 100 µM (inactive), the GI50 (HCT-116) was > 100 µM (inactive) and the GI50 (SNB-19) was > 100 µM (inactive). The GI50 (NCI-H23) was > 100 µM (inactive), the GI50 (KM12) was > 100 µM (inactive) and the GI50 (K562) was > 100 µM (inactive). For the same compound, the GI50 (IGROV-1) was > 100 µM (inactive), the GI50 (HCT-15) was > 100 µM and the GI50 (PC-3) was > 100 µM (inactive). The GI50 (RPMI-8226) was > 100 µM (inactive), the GI50 (SF-268) was > 100 µM (inactive) and the GI50 (HOP-92) was > 100 µM (inactive).

In the case of `ON=C(CC(O)(C(F)(F)Cl)C(F)(F)Cl)CC(O)(C(F)(F)Cl)C(F)(F)Cl`, the GI50 (SF-539) is reported as 2.07 µM (inactive), the GI50 (MOLT-4) is reported as 4.83 µM (inactive) and the GI50 (ACHN) is reported as 3.66 µM (inactive). For the same compound, the GI50 (DU-145) was 3.28 µM (inactive), the GI50 (SF-295) was 7.89 µM (inactive) and the GI50 (OVCAR-8) was 6.9 µM (inactive). For the same compound, the GI50 (T47D) was 3.37 µM (inactive), the GI50 (HCT-116) was 3.29 µM (inactive) and the GI50 (SNB-19) was 4.25 µM (inactive). For the same compound, the GI50 (NCI-H23) was 2.56 µM (inactive), the GI50 (KM12) was 8.38 µM (inactive) and the GI50 (K562) was > 10 µM (inactive). The GI50 (SK-OV-3) was 2.99 µM (inactive), the GI50 (IGROV-1) was 6.37 µM (inactive) and the GI50 (HCT-15) was 3.55 µM. The GI50 (PC-3) was 3.33 µM (inactive), the GI50 (RPMI-8226) was 2.7 µM (inactive) and the GI50 (SF-268) was 3.55 µM (inactive).

`CCOC(=O)c1nc2ccc(C(F)(F)F)cc2nc1Oc1ccc(C#N)cc1` was tested, and the GI50 (SF-539) was 19.5 µM (inactive), the GI50 (MOLT-4) was > 100 µM (inactive) and the GI50 (ACHN) was 29.9 µM (inactive). For the same compound, the GI50 (DU-145) was 18.5 µM (inactive), the GI50 (SF-295) was 14.8 µM (inactive) and the GI50 (OVCAR-8) was 19.6 µM (inactive). For the same compound, the GI50 (T47D) was 28.4 µM (inactive), the GI50 (HCT-116) was 48.5 µM (inactive) and the GI50 (SNB-19) was 17.7 µM (inactive). For the same compound, the GI50 (NCI-H23) was 40.3 µM (inactive), the GI50 (KM12) was 23.6 µM (inactive) and the GI50 (K562) was > 100 µM (inactive). For the same compound, the GI50 (SK-OV-3) was 15.7 µM (inactive), the GI50 (IGROV-1) was 14.5 µM (inactive) and the GI50 (HCT-15) was 38.4 µM. The GI50 (PC-3) was 17.3 µM (inactive), the GI50 (RPMI-8226) was > 100 µM (inactive) and the GI50 (SF-268) was 15.5 µM (inactive). The GI50 (HOP-92) was 17 µM (inactive).

In the case of `O=S(=O)(O)c1ccc(/N=N/c2ccc(/N=N/c3c(O)ccc4ccccc34)c(S(=O)(=O)O)c2)cc1`, the GI50 (SF-539) is reported as > 100 µM (inactive), the GI50 (MOLT-4) is reported as > 100 µM (inactive) and the GI50 (ACHN) is reported as > 100 µM (inactive). The GI50 (SF-295) was > 100 µM (inactive), the GI50 (OVCAR-8) was > 100 µM (inactive) and the GI50 (HCT-116) was > 100 µM (inactive). The GI50 (SNB-19) was > 100 µM (inactive), the GI50 (NCI-H23) was > 100 µM (inactive) and the GI50 (KM12) was > 100 µM (inactive). The GI50 (K562) was > 100 µM (inactive), the GI50 (SK-OV-3) was > 100 µM (inactive) and the GI50 (IGROV-1) was > 100 µM (inactive). The GI50 (HCT-15) was > 100 µM, the GI50 (PC-3) was > 100 µM (inactive) and the GI50 (RPMI-8226) was > 100 µM (inactive). For the same compound, the GI50 (SF-268) was > 100 µM (inactive) and the GI50 (HOP-92) was > 100 µM (inactive).

With `COc1ccc(/C=C/c2cc(O)cc(OC)c2)cc1` the GI50 (SF-539) was > 100 µM (inactive), the GI50 (MOLT-4) was 56.5 µM (inactive) and the GI50 (ACHN) was 19.8 µM (inactive). The GI50 (DU-145) was > 100 µM (inactive), the GI50 (SF-295) was 75.9 µM (inactive) and the GI50 (OVCAR-8) was > 100 µM (inactive). For the same compound, the GI50 (T47D) was > 100 µM (inactive), the GI50 (HCT-116) was > 100 µM (inactive) and the GI50 (SNB-19) was > 100 µM (inactive). For the same compound, the GI50 (NCI-H23) was > 100 µM (inactive), the GI50 (KM12) was 40.9 µM (inactive) and the GI50 (K562) was 67.9 µM (inactive). For the same compound, the GI50 (SK-OV-3) was > 100 µM (inactive), the GI50 (IGROV-1) was > 100 µM (inactive) and the GI50 (HCT-15) was 0.855 µM. The GI50 (PC-3) was 68.5 µM (inactive), the GI50 (RPMI-8226) was 22.3 µM (inactive) and the GI50 (SF-268) was > 100 µM (inactive). For the same compound, the GI50 (HOP-92) was 50.7 µM (inactive).
